Experimental data taken from patent publication US12479820B2, “Pyridin-3-yl derivatives” (Idorsia Pharmaceuticals Ltd, priority 2019, dated 2025).

target: T1, human LPA1 receptor (Homo sapiens, UniProt Q92633); experiment: Beta-arrestin recruitment assay to determine IC50 values for human LPAR1; format: cell-based; details: Tango EDG2-bla U2OS cells, antagonist assay, LPA 18:1 500 nM final
T1 construct: TEV protease site; Gal4-VP16 transcription factor; host or cells: Tango EDG2-bla U2OS cells
How it was run: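 Tango EDG2-bla U2OS cells were preincubated 30 min at 37 °C with compound. They were then stimulated with 500 nM (final) LPA 18:1 for 16 h. β-Lactamase reporter read by LiveBLAzer FRET substrate (2 h) as the 460/530 nm ratio; IC50 from 4-parameter logistic fit.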

T1 sequence (Q92633 whole entry, the tested form may be a part): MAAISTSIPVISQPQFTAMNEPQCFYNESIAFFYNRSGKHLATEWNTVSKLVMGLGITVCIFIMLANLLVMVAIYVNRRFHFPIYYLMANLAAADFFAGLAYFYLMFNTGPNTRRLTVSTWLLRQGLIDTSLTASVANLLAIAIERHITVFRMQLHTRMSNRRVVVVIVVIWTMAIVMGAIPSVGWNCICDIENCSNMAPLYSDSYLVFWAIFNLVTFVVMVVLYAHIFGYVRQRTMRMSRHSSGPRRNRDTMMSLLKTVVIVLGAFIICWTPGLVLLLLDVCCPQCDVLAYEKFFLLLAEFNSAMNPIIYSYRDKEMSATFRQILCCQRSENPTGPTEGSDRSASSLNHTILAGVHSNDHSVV

Row | Structure (SMILES) | IC50 [nM]
1 | COc1cc(Cl)ncc1NC(=O)C1(c2ccccc2C(C)C)CN(c2ccnc(C)c2F)C1 [Example 24-3, N-(6-chloro-4-methoxypyridin-3-yl)-1-(3-fluoro-2-methylpyridin-4-yl)-3-(2-isopropylphenyl)azetidine-3-carboxamide] | 2
2 | COc1cc(Cl)ncc1NC(=O)C1(c2ccccc2C(C)C)CN(c2cc(C)ncc2F)C1 [Example 24-4, N-(6-chloro-4-methoxypyridin-3-yl)-1-(5-fluoro-2-methylpyridin-4-yl)-3-(2-isopropylphenyl)azetidine-3-carboxamide] | 2
3 | COc1cc(Cl)ncc1NC(=O)C1(c2ccccc2C(C)C)CN(c2cc(C)nc(C)c2)C1 [Example 24-6, N-(6-chloro-4-methoxypyridin-3-yl)-1-(2,6-dimethylpyridin-4-yl)-3-(2-isopropylphenyl)azetidine-3-carboxamide] | 91
4 | COc1cc(Cl)ncc1NC(=O)C1(c2ccccc2C(C)C)CN(c2ncc(C#N)cn2)C1 [Example 24-8, N-(6-chloro-4-methoxypyridin-3-yl)-1-(5-cyanopyrimidin-2-yl)-3-(2-isopropylphenyl)azetidine-3-carboxamide] | 1
5 | COc1cc(Cl)ncc1NC(=O)C1(c2ccccc2C(C)C)CCN(c2ncncc2F)CC1 [Example 24-17, N-(6-chloro-4-methoxypyridin-3-yl)-1-(5-fluoropyrimidin-4-yl)-4-(2-isopropylphenyl)piperidine-4-carboxamide] | 3
6 | COc1cc(Cl)ncc1NC(=O)C1(c2ccccc2C(C)C)CCN(c2nc(C)ncc2F)CC1 [Example 24-18, N-(6-chloro-4-methoxypyridin-3-yl)-1-(5-fluoro-2-methylpyrimidin-4-yl)-4-(2-isopropylphenyl)piperidine-4-carboxamide] | 5
7 | COC(=O)c1cnc(N2CC(C(=O)Nc3cnc(Cl)cc3OC)(c3ccccc3C(C)C)C2)cn1 [Example 24-19, methyl 5-(3-((6-chloro-4-methoxypyridin-3-yl)carbamoyl)-3-(2-isopropylphenyl)azetidin-1-yl)pyrazine-2-carboxylate] | 9
8 | COc1cc(Cl)ncc1NC(=O)C1(c2ccccc2C(C)C)CN(c2cnc(C(=O)O)cn2)C1 [Example 24-20, 5-(3-((6-chloro-4-methoxypyridin-3-yl)carbamoyl)-3-(2-isopropylphenyl)azetidin-1-yl)pyrazine-2-carboxylic acid] | 145
9 | COC(=O)c1ccc(N2CC(C(=O)Nc3cnc(Cl)cc3OC)(c3ccccc3C(C)C)C2)nc1 [Example 24-21, methyl 6-(3-((6-chloro-4-methoxypyridin-3-yl)carbamoyl)-3-(2-isopropylphenyl)azetidin-1-yl)nicotinate] | 12
10 | COC(=O)c1cnc(N2CC(C(=O)Nc3cnc(Cl)cc3OC)(c3ccccc3C(C)C)C2)nc1 [Example 24-22, methyl 2-(3-((6-chloro-4-methoxypyridin-3-yl)carbamoyl)-3-(2-isopropylphenyl)azetidin-1-yl)pyrimidine-5-carboxylate] | 22
11 | COc1cc(Cl)ncc1NC(=O)C1(c2ccccc2C(C)C)CN(c2ncc(C(=O)O)cn2)C1 [Example 24-23, 2-(3-((6-chloro-4-methoxypyridin-3-yl)carbamoyl)-3-(2-isopropylphenyl)azetidin-1-yl)pyrimidine-5-carboxylic acid] | 3150
12 | COC(=O)c1ccc(N2CC(C(=O)Nc3cnc(Cl)cc3OC)(c3ccccc3C(C)C)C2)nn1 [Example 24-24, methyl 6-(3-((6-chloro-4-methoxypyridin-3-yl)carbamoyl)-3-(2-isopropylphenyl)azetidin-1-yl)pyridazine-3-carboxylate] | 24
13 | CCOC(=O)c1coc(N2CC(C(=O)Nc3cnc(Cl)cc3OC)(c3ccccc3C(C)C)C2)n1 [Example 24-25, ethyl 2-(3-((6-chloro-4-methoxypyridin-3-yl)carbamoyl)-3-(2-isopropylphenyl)azetidin-1-yl)oxazole-4-carboxylate] | 15
14 | COc1cc(Cl)ncc1NC(=O)C1(c2ccccc2C(C)C)CN(c2nc(C(=O)O)co2)C1 [Example 24-26, 2-(3-((6-chloro-4-methoxypyridin-3-yl)carbamoyl)-3-(2-isopropylphenyl)azetidin-1-yl)oxazole-4-carboxylic acid] | 91

The next lines start with the values.

Row | IC50 [nM] | Structure (SMILES)
15 | 3 | COc1cc(Cl)ncc1NC(=O)C1(c2ccccc2C(C)C)CN(S(N)(=O)=O)C1 [Example 21-2, N-(6-chloro-4-methoxypyridin-3-yl)-3-(2-isopropylphenyl)-1-sulfamoylazetidine-3-carboxamide]
16 | 2 | COc1cc(Cl)ncc1NC(=O)C1(c2ccccc2C(C)C)CN(c2ccncc2C)C1 [Example 24-1, N-(6-chloro-4-methoxypyridin-3-yl)-3-(2-isopropylphenyl)-1-(3-methylpyridin-4-yl)azetidine-3-carboxamide]
17 | 2 | COc1cc(Cl)ncc1NC(=O)C1(c2ccccc2C(C)C)CN(c2ccncc2F)C1 [Example 24-2, N-(6-chloro-4-methoxypyridin-3-yl)-1-(3-fluoropyridin-4-yl)-3-(2-isopropylphenyl)azetidine-3-carboxamide]
18 | 3 | COc1cc(Cl)ncc1NC(=O)C1(c2ccccc2C(C)C)CN(c2ccnc(C)c2)C1 [Example 24-5, N-(6-chloro-4-methoxypyridin-3-yl)-3-(2-isopropylphenyl)-1-(2-methylpyridin-4-yl)azetidine-3-carboxamide]
19 | 1 | COc1cc(Cl)ncc1NC(=O)C1(c2ccccc2C(C)C)CN(c2cc(F)ccn2)C1 [Example 24-7, N-(6-chloro-4-methoxypyridin-3-yl)-1-(4-fluoropyridin-2-yl)-3-(2-isopropylphenyl)azetidine-3-carboxamide]
20 | 8 | COc1cc(Cl)ncc1NC(=O)C1(c2ccccc2C(C)C)CN(c2ncc(F)cn2)C1 [Example 24-9, N-(6-chloro-4-methoxypyridin-3-yl)-1-(5-fluoropyrimidin-2-yl)-3-(2-isopropylphenyl)azetidine-3-carboxamide]
21 | 2 | COc1cc(Cl)ncc1NC(=O)C1(c2ccccc2C(C)C)CN(c2ncncc2F)C1 [Example 24-10, N-(6-chloro-4-methoxypyridin-3-yl)-1-(5-fluoropyrimidin-4-yl)-3-(2-isopropylphenyl)azetidine-3-carboxamide]
22 | 5 | COc1cc(Cl)ncc1NC(=O)C1(c2ccccc2C(C)C)CN(c2ccncn2)C1 [Example 24-11, N-(6-chloro-4-methoxypyridin-3-yl)-3-(2-isopropylphenyl)-1-(pyrimidin-4-yl)azetidine-3-carboxamide]
23 | 7 | COc1cc(Cl)ncc1NC(=O)C1(c2ccccc2C(C)C)CN(c2ccnc(C)n2)C1 [Example 24-12, N-(6-chloro-4-methoxypyridin-3-yl)-3-(2-isopropylphenyl)-1-(2-methylpyrimidin-4-yl)azetidine-3-carboxamide]
24 | 5 | COc1cc(Cl)ncc1NC(=O)C1(c2ccccc2C(C)C)CN(c2ncncc2C)C1 [Example 24-13, N-(6-chloro-4-methoxypyridin-3-yl)-3-(2-isopropylphenyl)-1-(5-methylpyrimidin-4-yl)azetidine-3-carboxamide]
25 | 8 | COc1cc(Cl)ncc1NC(=O)C1(c2ccccc2C(C)C)CN(c2cc(C)ncn2)C1 [Example 24-14, N-(6-chloro-4-methoxypyridin-3-yl)-3-(2-isopropylphenyl)-1-(6-methylpyrimidin-4-yl)azetidine-3-carboxamide]
26 | 29 | COc1cc(Cl)ncc1NC(=O)C1(c2ccccc2C(C)C)CN(c2cc(Cl)nc(C)n2)C1 [Example 24-15, 1-(6-chloro-2-methylpyrimidin-4-yl)-N-(6-chloro-4-methoxypyridin-3-yl)-3-(2-isopropylphenyl)azetidine-3-carboxamide]
27 | 13 | COc1cc(Cl)ncc1NC(=O)C1(c2ccccc2C(C)C)CN(c2nc(C)ncc2F)C1 [Example 24-16, N-(6-chloro-4-methoxypyridin-3-yl)-1-(5-fluoro-2-methylpyrimidin-4-yl)-3-(2-isopropylphenyl)azetidine-3-carboxamide]
28 | 270 | COc1cc(Cl)ncc1NC(=O)C1(c2ccccc2C(C)C)CN(c2nnn[nH]2)C1 [Example 25, N-(6-chloro-4-methoxypyridin-3-yl)-3-(2-isopropylphenyl)-1-(1H-tetrazol-5-yl)azetidine-3-carboxamide]
29 | 12 | COc1cc(Cl)ncc1NC(=O)C1(c2ccccc2C(C)C)CN(C2=NC(=O)CO2)C1 [Example 26, N-(6-chloro-4-methoxypyridin-3-yl)-3-(2-isopropylphenyl)-1-(4-oxo-4,5-dihydrooxazol-2-yl)azetidine-3-carboxamide]
30 | 55 | COc1cc(Cl)ncc1NC(=O)C1(c2ccccc2C(C)C)CN(c2c(O)c(=O)c2=O)C1 [Example 27, N-(6-chloro-4-methoxypyridin-3-yl)-1-(2-hydroxy-3,4-dioxocyclobut-1-en-1-yl)-3-(2-isopropylphenyl)azetidine-3-carboxamide]

system: LPA-induced skin vascular leakage in Balb/c mice; experiment: mouse LPA-induced skin vascular leakage model; format: in vivo; details: oral administration of 30 mg/kg to mice; extravasated Evans blue per skin disc
Method: Assessment of In Vivo Potency
The in vivo potency of the compounds of Formula (I) can be determined using a mouse LPA-induced skin vascular leakage model. Female Balb/c mice are treated with either vehicle or test compound (e.g. at 30 mg/kg or 100 mg/kg p.o.) for at least 1 h prior to administration of the albumin marker Evans blue (50 mg/kg, i.v., 0.9% NaCl) and subsequent challenge with LPA (5 μg, i.d.). After 30 minutes, mice are sacrificed by CO2 inhalation. Discs of skin from the injection sites are removed, digested in formamide (500 μl, 37° C., 24 hrs) and the content of Evans blue quantified by colorimetric assay. Results are expressed as extravasated Evans blue per skin disc (μg/disc).
As an example, selected compound of the present invention, Ex 21-2, is able to effectively reduce LPA-induced vascular leakage after oral administration of 30 mg/kg to mice as compared to a group of animals treated with vehicle only. Reduction of vascular leakage compared to vehicle group was >60%.

Row | Structure (SMILES) | Reduction of vascular leakage compared to vehicle group [%]
31 | COc1cc(Cl)ncc1NC(=O)C1(c2ccccc2C(C)C)CN(S(N)(=O)=O)C1 [Example 21-2, N-(6-chloro-4-methoxypyridin-3-yl)-3-(2-isopropylphenyl)-1-sulfamoylazetidine-3-carboxamide] | > 60
